What was measured:
[1] = Cytotoxicity against human HL-60(TB) cells assessed as cell growth at 10^-5 M after 48 hrs by SRB assay; format: functional; conditions: HL-60, 48 h, read-out: Activity
[2] = Cytotoxicity against human HOP62 cells after 48 hrs by SRB assay; format: functional; conditions: HOP-62, 48 h
[3] = Cytotoxicity against human HCC2998 cells after 48 hrs by SRB assay; format: functional; conditions: HCC 2998, 48 h
[4] = Cytotoxicity against human HL-60(TB) cells after 48 hrs by SRB assay; format: functional; conditions: HL-60, 48 h
[5] = Cytotoxicity against human SF295 cells after 48 hrs by SRB assay; format: functional; conditions: SF-295, 48 h
NCI-H226 [6] = experiment: Cytotoxicity against human NCI-H226 cells assessed as cell growth at 10^-5 M after 48 hrs by SRB assay; format: functional; conditions: NCI-H226, 48 h, read-out: Activity
[7] = Cytotoxicity against human SNB19 cells after 48 hrs by SRB assay; format: functional; conditions: SNB-19, 48 h
HT-29 = experiment: Cytotoxicity against human HT-29 cells assessed as cell growth at 10^-5 M after 48 hrs by SRB assay; format: functional; conditions: HT-29, 48 h, read-out: Activity
NCI-H460 = experiment: Cytotoxicity against human NCI-H460 cells assessed as cell growth at 10^-5 M after 48 hrs by SRB assay; format: functional; conditions: NCI-H460, 48 h, read-out: Activity
MDA-MB-468 = experiment: Cytotoxicity against human MDA-MB-468 cells after 48 hrs by SRB assay; format: functional; conditions: MDA-MB-468, 48 h
Albumin [8] = target: T1, Albumin (Homo sapiens, UniProt P02768); experiment: Binding affinity to human serum albumin at 0.25 to 2 uM at 288 K by fluorescence microscopic analysis; format: ADME; conditions: isolated protein
A549 = experiment: Cytotoxicity against human A549 cells after 48 hrs by SRB assay; format: functional; conditions: A549, 48 h
[9] = Cytotoxicity against human SW620 cells assessed as cell growth at 10^-5 M after 48 hrs by SRB assay; format: functional; conditions: SW-620, 48 h, read-out: Activity
[10] = Antiproliferative activity against human HCC2998 cells at 10'5 M; format: functional, HCC 2998
[11] = Cytotoxicity against human HCT15 cells after 48 hrs by SRB assay; format: functional; conditions: HCT-15, 48 h
SK-MEL-28 = experiment: Cytotoxicity against human SK-MEL-28 cells after 48 hrs by SRB assay; format: functional; conditions: SK-MEL-28, 48 h
SN12C = experiment: Cytotoxicity against human SN12C cells after 48 hrs by SRB assay; format: functional
[12] = Cytotoxicity against human TK10 cells assessed as cell growth at 10^-5 M after 48 hrs by SRB assay; format: functional; conditions: TK-10, 48 h, read-out: Activity
Albumin [13] = target: T1, Albumin; experiment: Binding affinity to human serum albumin assessed Stern-Volmer quenching constant at 0.25 to 2 uM at 308 K by fluorescence microscopic analysis; format: ADME; conditions: isolated protein
[14] = Cytotoxicity against human UACC62 cells after 48 hrs by SRB assay; format: functional; conditions: UACC-62, 48 h
ACHN = experiment: Cytotoxicity against human ACHN cells after 48 hrs by SRB assay; format: functional
NCI-H226 [15] = experiment: Cytotoxicity against human NCI-H226 cells after 48 hrs by SRB assay; format: functional; conditions: NCI-H226, 48 h
[16] = Antiproliferative activity against human NCI-ADR-RES cells at 10'5 M; format: functional
MCF7 [17] = experiment: Cytotoxicity against human MCF7 cells assessed as cell growth at 10^-5 M after 48 hrs by SRB assay; format: functional; conditions: MCF7, 48 h, read-out: Activity
Albumin [18] = target: T1, Albumin; experiment: Binding affinity to human serum albumin assessed Stern-Volmer quenching constant at 0.25 to 2 uM at 288 K by fluorescence microscopic analysis; format: ADME; conditions: isolated protein
[19] = Cytotoxicity against human PC3 cells assessed as cell growth at 10^-5 M after 48 hrs by SRB assay; format: functional; conditions: PC-3, 48 h, read-out: Activity
[20] = Cytotoxicity against human MOLT4 cells assessed as cell growth at 10^-5 M after 48 hrs by SRB assay; format: functional; conditions: MOLT-4, 48 h, read-out: Activity
A498 [21] = experiment: Cytotoxicity against human A498 cells after 48 hrs by SRB assay; format: functional; conditions: A498, 48 h
MCF7 [22] = experiment: Antiproliferative activity against human MCF7 cells at 10'5 M; format: functional
[23] = Cytotoxicity against human Caki1 cells after 48 hrs by SRB assay; format: functional; conditions: CAKI-1, 48 h
A498 [24] = experiment: Cytotoxicity against human A498 cells assessed as cell growth at 10^-5 M after 48 hrs by SRB assay; format: functional; conditions: A498, 48 h, read-out: Activity
M14 = experiment: Cytotoxicity against human M14 cells after 48 hrs by SRB assay; format: functional; conditions: M14, 48 h
786-0 = experiment: Cytotoxicity against human 786-0 cells assessed as cell growth at 10^-5 M after 48 hrs by SRB assay; format: functional; conditions: 786-0, 48 h, read-out: Activity
SK-MEL-2 = experiment: Cytotoxicity against human SK-MEL-2 cells after 48 hrs by SRB assay; format: functional; conditions: SK-MEL-2, 48 h
Albumin [25] = target: T1, Albumin; experiment: Binding affinity to human serum albumin at 0.25 uM at 303 K by fluorescence microscopic analysis in the presence of Co2+; format: ADME; conditions: isolated protein
[26] = Cytotoxicity against human LOXIMVI cells after 48 hrs by SRB assay; format: functional; conditions: LOX IMVI
[27] = Cytotoxicity against human RPMI8226 cells assessed as cell growth at 10^-5 M after 48 hrs by SRB assay; format: functional; conditions: RPMI-8226, 48 h, read-out: Activity
[28] = Cytotoxicity against human OVCAR8 cells assessed as cell growth at 10^-5 M after 48 hrs by SRB assay; format: functional; conditions: OVCAR-8, 48 h, read-out: Activity
[29] = Antiproliferative activity against human IGROV1 cells at 10'5 M; format: functional, IGROV-1
[30] = read-out: LC50 (the source's name)

T1 sequence (P02768 whole entry): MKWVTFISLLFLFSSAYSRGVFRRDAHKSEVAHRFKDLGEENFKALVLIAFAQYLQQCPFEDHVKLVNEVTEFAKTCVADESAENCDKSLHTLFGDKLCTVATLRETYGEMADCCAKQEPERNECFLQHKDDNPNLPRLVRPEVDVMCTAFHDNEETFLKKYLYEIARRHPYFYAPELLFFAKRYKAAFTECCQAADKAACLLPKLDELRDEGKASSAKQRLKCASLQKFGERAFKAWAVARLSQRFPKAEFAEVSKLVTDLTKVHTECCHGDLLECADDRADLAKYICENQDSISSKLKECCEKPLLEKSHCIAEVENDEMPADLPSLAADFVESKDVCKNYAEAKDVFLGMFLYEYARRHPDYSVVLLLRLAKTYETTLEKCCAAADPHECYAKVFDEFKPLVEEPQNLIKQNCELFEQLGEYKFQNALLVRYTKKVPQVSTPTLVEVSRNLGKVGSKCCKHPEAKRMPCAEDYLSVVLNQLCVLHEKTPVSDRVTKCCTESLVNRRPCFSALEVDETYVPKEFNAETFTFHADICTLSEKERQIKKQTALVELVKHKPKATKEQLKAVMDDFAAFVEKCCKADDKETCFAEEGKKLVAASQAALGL

O=C(/C=C/c1ccccc1)n1c(-c2ccc(Cl)cc2)nc2ccccc21
growth at 10 µM [1]: -3.97%
GI50 [2]: 1.89 µM
TGI [2]: 7.3 µM
CC50 [2, 30]: 35.1 µM
GI50 [3]: 1.41 µM
TGI [3]: 2.78 µM
CC50 [3, 30]: 5.49 µM
GI50 [4]: 1.4 µM
TGI [4]: 4.88 µM
CC50 [4, 30]: > 100 µM
GI50 [5]: 2.1 µM
TGI [5]: 6.14 µM
CC50 [5, 30]: 42.5 µM
growth at 10 µM (NCI-H226 [6]): -55.3%
GI50 [7]: 1.47 µM
TGI [7]: 2.92 µM
CC50 [7, 30]: 5.79 µM
growth at 10 µM (HT-29): -40.6%
growth at 10 µM (NCI-H460): 0.54%
GI50 (MDA-MB-468): 1.52 µM
TGI (MDA-MB-468): 4.32 µM
CC50 (MDA-MB-468; [30]): 23.7 µM
K (Albumin [8]): 2.24 ×10⁵ /mol
GI50 (A549): 0.38 µM
TGI (A549): 1.88 µM
CC50 (A549; [30]): > 100 µM
growth at 10 µM [9]: -55.1%
growth inhibition (GI) [10]: 94.92%
GI50 [11]: 1.21 µM
TGI [11]: 2.88 µM
CC50 [11, 30]: 6.9 µM
GI50 (SK-MEL-28): 2.1 µM
TGI (SK-MEL-28): 4.35 µM
CC50 (SK-MEL-28; [30]): 9.02 µM
GI50 (SN12C): 1.39 µM
TGI (SN12C): 2.76 µM
CC50 (SN12C; [30]): 5.46 µM
growth at 10 µM [12]: 18.6%
KSV (Albumin [13]): 1.14 ×10⁵ L/mol
GI50 [14]: 1.47 µM
TGI [14]: 3.42 µM
CC50 [14, 30]: 7.93 µM
GI50 (ACHN): 1.17 µM
TGI (ACHN): 2.56 µM
CC50 (ACHN; [30]): 5.62 µM
GI50 (NCI-H226 [15]): 1.46 µM
TGI (NCI-H226 [15]): 3.82 µM
CC50 (NCI-H226 [15]; [30]): 10 µM
growth inhibition (GI) [16]: 89.22%
growth at 10 µM (MCF7 [17]): 10.3%
KSV (Albumin [18]): 2.03 ×10⁵ L/mol
growth at 10 µM [19]: 6.09%
growth at 10 µM [20]: 21.9%
GI50 (A498 [21]): 2.05 µM
TGI (A498 [21]): 7.63 µM
CC50 (A498 [21]; [30]): 28.4 µM
growth inhibition (GI) (MCF7 [22]): 89.71%
GI50 [23]: 1.18 µM
TGI [23]: 10 µM
CC50 [23, 30]: 31.7 µM
growth at 10 µM (A498 [24]): -14.6%
GI50 (M14): 1.63 µM
TGI (M14): 5.74 µM
CC50 (M14; [30]): 26 µM
growth at 10 µM (786-0): -17.6%
GI50 (SK-MEL-2): 1.11 µM
TGI (SK-MEL-2): 3.04 µM
CC50 (SK-MEL-2; [30]): 8.32 µM
K (Albumin [25]): 4.09 ×10³ /mol
GI50 [26]: 1.6 µM
TGI [26]: 3.22 µM
CC50 [26, 30]: 6.5 µM
growth at 10 µM [27]: -31.1%
growth at 10 µM [28]: -31.3%
growth inhibition (GI) [29]: 89.62%

From ChEMBL document CHEMBL3769371, “1-[(2E)-3-Phenylprop-2-enoyl]-1H-benzimidazoles as anticancer agents: synthesis, crystal structure analysis and binding studies of the most potent anticancer molecule with serum albumin” (Medchemcomm, 2015)
